Measured values published in patent US20060079510A1, “Use of PARP-1 inhibitors for protecting tumorcidal lymphocytes from apoptosis” (priority 2004, published 2006).
“Also recorded” adds a separate entry of the source.

Columns and labels:
[1] = system: peripheral blood lymphocytes; test: Oxidant-induced cell death in lymphocytes incubated with mononuclear phagocytes or hydrogen peroxide, flow cytometry; type: cell-based, human
Method: Peripheral venous blood was obtained as freshly prepared leukopacks from healthy blood donors at the Blood Centre, Sahlgren's Hospital, Göteborg, Sweden, to study the activation characteristics of cytotoxic lymphocytes in the presence and absence of MO, and ROM inhibitors. The blood (65 ml) was mixed with 92.5 ml Iscove's medium, 35 ml 6% Dextran (Kabi Pharmacia, Stockholm, Sweden) and 7.5 ml acid citrate dextrose (ACD) (Baxter, Deerfield, Ill.). After incubation for 15 minutes at room temperature, the supernatant was carefully layered onto Ficoll-Hypaque (Lymphoprep, Myegaard, Norway). Mononuclear cells (MNC) were collected at the interface after centrifugation at 380 g for 15 minutes at room temperature, washed twice in PBS and resuspended in Iscove's medium supplemented with 10% human AB^+ serum. During all further separation of cells, the cell suspensions were kept in siliconized test tubes (Vacuette, Greiner, Stockholm).
The MNC were further separated into lymphocyte and monocyte (MO) populations using the counter-current centrifugal elutriation (CCE) technique originally described by Yasaka and co-workers (Yasaka, T. et al., J. Immunol., 127:1515) with modifications as described in Hansson, M., et al. (J. Immunol., 156: 42 (1996); hereby incorporated by reference). Briefly, the sedimentation rate of cells in a spinning rotor was balanced by a counter-directed flow through the chamber. By slowly increasing the flow rate, fractions of cells of well-defined sizes were collected. The MNC were resuspended in elutration buffer containing 0.5% BSA (ICN Biomedicals Inc., Aurora, Ohio) and 0.1% EDTA (VWR, Göteborg, Sweden) in buffered NaCl and fed into a Beckman J2-21 ultracentrifuge with a JE-6B rotor (Bechman Coulter Inc., Fullerton, Calif.) at 2100 rpm. A fraction with >90% MO was obtained at a flow rate of 19 ml/min. A lymphocyte fraction enriched for NK-cells (CD3^−/56^+ phenotype) and T-cells (CD3^+/56^−) was recovered at flow rates of 14-15 ml/min. This fraction contained <3% MO and consisted of CD3ε^−/56^+ NK-cells (45-50%), CD3ε^+/56^− T-cells (35-40%), CD3ε^−/56^− cells (5-10%), and CD3ε^+/56^+ cells (1-5%), as judged by flow cytometry. In some experiments, dynabeads (Dynal A/S, Oslo, Norway) coated with anti-CD56 were used to obtain purified lymphocyte preparations of T-cells, as described in detail by Hansson, M., et al., incorporated above.
Briefly, lymphocytes were incubated overnight with autologous mononuclear phagocytes in the presence or absence of catalase (200 U/ml), histamine ([…]) or DPI (3 μM).
Briefly, lymphocytes, pretreated with PJ34 (250 ηM), Z-VAD.fmk (100 μM) or medium, were subjected to mononuclear phagocytes at different Mo/Ly ratios (FIG. 5A) or to different concentrations of H2O2 (FIG. 5C). FIGS. 5A-5D illustrate that PJ34 protected lymphocytes from cell death induced by phagocytes ([…], ratio 1:1, p<0.05) and hydrogen peroxide (FIGS. 5C and 5D, 250 μM, p<0.001).

lymphocytes = test: Altered mitochondrial transmembrane potential (Mitochondrial Membrane Sensor Kit) and To-Pro-3 staining; type: cell-based, human; details: H2O2 250 μM or mononuclear phagocytes; PJ34 250 μM as printed
Method: A Mitochondrial Membrane Sensor Kit (BD Clontech) was used to identify cells with altered mitochondrial transmembrane potential according to the manufacturer's protocol.
Briefly, lymphocytes exposed to hydrogen peroxide (250 μM) were assayed for altered mitochondrial transmembrane potential and plasma membrane integrity at various time points. Depolarization of the Ψm is seen as an increase in green fluorescence (mitosensor monomers).

human lymphocytes = test: Large-scale DNA fragmentation, pulsed-field gel electrophoresis; type: cell-based; details: cells treated with Z-VAD.fmk and 250 μM H2O2, 16 hours
Method: Translocation of AIF to the nucleus has been associated with large-scale DNA fragmentation. The observed accumulation of nuclear AIF after challenge with H2O2 led to investigation as to whether large-scale DNA fragmentation accompanied lymphocyte cell death. To that end, lymphocytes were exposed to H2O2, cast into agarose plugs and analyzed using pulsed-field gel electrophoresis. Briefly, human lymphocytes were exposed to 250 μM H2O2 and incubated overnight at 37° C. After 16 hours, the cells were washed twice with PBS and resuspended in PBS. Cells were mixed with an equal volume of 2% low melting point agarose and cast into agarose plugs. After solidifying, plugs were incubated overnight at 56° C. in a buffer containing 0.2% Sodium deoxycholate and 0.5% N-lauroyl sarcosine supplemented with 0.5 mg/ml proteinase K.

NK cells [2] = details: cited from earlier work
NK cells [3] = details: histamine and IL-2; cited from earlier work
melanoma cell lines = details: histamine and IL-2 given prior to inoculation; cited from earlier work
[4] = system: herpes simplex virus (HSV); details: cited from earlier work

Compound	protection of lymphocytes from phagocyte- or hydrogen peroxide-induced (oxidant/ROS-induced) cell death / apoptosis ([1]; pretreatment, PJ34 250 nM, DPQ 3 μM, Z-VAD.fmk 100 μM, overnight incubation with phagocytes or H2O2)	protection from oxidant-induced alterations of Ψm (FIG. 4) (lymphocytes)	DNA fragments on pulsed-field gel (FIG. 7) (human lymphocytes)	protection of lymphocytes from phagocyte-induced cell death (FIG. 1) ([1]; overnight with autologous mononuclear phagocytes, catalase 200 U/ml, histamine, DPI 3 μM, p<0.001, n=4)	monocyte mediated NK cell suppression (NK cells [2]; histamine and IL-2)	NK cell cytotoxicity (NK cells [2]; histamine and IL-2 in the presence of monocytes, relative to IL-2 only)	effect on NK mediated cytotoxicity (NK cells [2]; in the absence of monocytes)	granulocyte mediated NK cell suppression (NK cells [3])	development of lung metastatic foci (melanoma cell lines)	survival time, combination ([4]; combination of histamine and IL-2)	survival time ([4]; single dose of histamine)
Z-VAD.fmk	only partially protected; also recorded: failed to protect	failed to display any significant protective effect	distinct band (approx. 50 kb)								
NCCc1c[nH]cn1 [histamine]				fully protected	complete or nearly complete abrogation	elevated levels of cytotoxicity	no effect or weakly suppressed	only partially removed	protected	synergistic effect	prolong survival time
